The target in experiment [1] is T1, 5-lipoxygenase (5-LO) (Homo sapiens, UniProt P09917).
T1 construct: gene ALOX5
T1 sequence (P09917 1-674): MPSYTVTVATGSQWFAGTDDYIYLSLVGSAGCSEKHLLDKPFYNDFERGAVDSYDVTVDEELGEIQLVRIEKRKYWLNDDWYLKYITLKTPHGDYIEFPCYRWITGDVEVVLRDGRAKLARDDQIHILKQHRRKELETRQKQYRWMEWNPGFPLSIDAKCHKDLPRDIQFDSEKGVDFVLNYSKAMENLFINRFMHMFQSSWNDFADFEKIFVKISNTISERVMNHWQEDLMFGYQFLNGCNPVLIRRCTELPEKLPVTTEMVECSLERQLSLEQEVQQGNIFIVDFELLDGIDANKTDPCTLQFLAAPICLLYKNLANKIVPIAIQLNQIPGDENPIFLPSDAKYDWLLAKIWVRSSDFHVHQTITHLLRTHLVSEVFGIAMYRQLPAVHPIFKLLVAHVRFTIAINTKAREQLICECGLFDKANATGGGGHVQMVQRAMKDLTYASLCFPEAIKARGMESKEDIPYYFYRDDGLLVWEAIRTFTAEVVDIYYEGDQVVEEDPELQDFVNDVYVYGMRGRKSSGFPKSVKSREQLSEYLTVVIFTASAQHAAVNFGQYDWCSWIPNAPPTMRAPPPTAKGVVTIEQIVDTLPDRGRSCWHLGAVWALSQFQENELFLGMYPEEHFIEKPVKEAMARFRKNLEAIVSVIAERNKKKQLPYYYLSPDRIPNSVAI
The experiment in a line: purified recombinant 5-LO activity assay, arachidonic acid substrate, HPLC product analysis. The class given is biochemical.

For experiment [2], the target named is T2, soluble epoxide hydrolase (sEH) (Homo sapiens, UniProt P34913).
T2 construct: gene EPHX2
T2 sequence (P34913 1-555): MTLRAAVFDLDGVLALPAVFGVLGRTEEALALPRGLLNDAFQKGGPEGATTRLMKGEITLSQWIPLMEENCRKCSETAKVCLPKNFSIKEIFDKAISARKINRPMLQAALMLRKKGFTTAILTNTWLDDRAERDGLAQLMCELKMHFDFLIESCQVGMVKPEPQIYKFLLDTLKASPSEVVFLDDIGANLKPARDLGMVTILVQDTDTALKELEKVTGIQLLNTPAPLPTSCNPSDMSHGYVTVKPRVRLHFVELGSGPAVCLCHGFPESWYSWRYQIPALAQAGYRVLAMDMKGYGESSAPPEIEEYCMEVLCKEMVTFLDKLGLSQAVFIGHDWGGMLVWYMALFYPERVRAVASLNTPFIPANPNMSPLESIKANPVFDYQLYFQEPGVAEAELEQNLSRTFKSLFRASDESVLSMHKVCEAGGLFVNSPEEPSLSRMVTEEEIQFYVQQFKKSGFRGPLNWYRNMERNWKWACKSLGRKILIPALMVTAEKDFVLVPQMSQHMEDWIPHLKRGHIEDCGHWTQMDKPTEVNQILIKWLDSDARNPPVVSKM
Kind of experiment: fluorescence-based enzyme activity assay with recombinant human sEH (PHOME substrate). The class given is biochemical.

Consider 1 compound from paper PMC6155600, “Design, Synthesis and Cellular Characterization of a Dual Inhibitor of 5-Lipoxygenase and Soluble Epoxide Hydrolase” (Molecules : A Journal of Synthetic Chemistry and Natural …, 2016).

In general, IC50 refers to the point on the concentration scale where inhibition reaches its midpoint.

Take `COc1ccc(CN(O)C(N)=O)cc1OCCCNC(=O)Nc1ccc(OC(F)(F)F)cc1` [compound 5, 1-(3-{5-(Hydroxyureido)methyl-2-methoxyphenoxy}propyl)-3-[4-(trifluoromethoxy)phenyl]urea]: the IC50 in experiment [1] came out at 1.3 µM; in experiment [2], 0.029 µM.
